In BigSolDB 2.1:

C=CC(=O)Nc1cc(F)c(Br)c(F)c1
Settings | solubility (mole fraction)
in acetonitrile, 284.65 K | 0.006
in acetonitrile, 291.45 K | 0.0079
in acetonitrile, 294.75 K | 0.009
in acetonitrile, 298.25 K | 0.0104
in acetonitrile, 301.85 K | 0.0121
in acetonitrile, 305.35 K | 0.0139
in acetonitrile, 308.45 K | 0.0158
in acetonitrile, 312.75 K | 0.0186
in acetonitrile, 316.65 K | 0.0217
in acetonitrile, 320.05 K | 0.0248
in acetonitrile, 323.85 K | 0.0288
in acetonitrile, 327.65 K | 0.0332
in acetonitrile, 331.75 K | 0.0386
in acetonitrile, 334.15 K | 0.0423
in acetonitrile, 337.75 K | 0.0482
in acetonitrile, 340.45 K | 0.0533
in acetonitrile, 343.55 K | 0.0596
in acetonitrile, 346.35 K | 0.0662
in acetonitrile, 348.95 K | 0.0725
in benzene, 296.35 K | 0.0007
in benzene, 302.95 K | 0.0011
in benzene, 308.75 K | 0.0014
in benzene, 310.75 K | 0.0015
in benzene, 317.65 K | 0.0022
in benzene, 324.25 K | 0.003
in benzene, 332.05 K | 0.0044
in benzene, 335.95 K | 0.0054
in benzene, 340.85 K | 0.0067
in benzene, 347.05 K | 0.0094
in ethanol, 295.25 K | 0.0251
in ethanol, 297.65 K | 0.0264
in ethanol, 301.55 K | 0.0292
in ethanol, 309.25 K | 0.0351
in ethanol, 312.95 K | 0.0384
in ethanol, 318.55 K | 0.044
in ethanol, 326.45 K | 0.0534
in ethanol, 331.35 K | 0.0604
in ethanol, 334.85 K | 0.0659
in ethanol, 339.55 K | 0.074
in ethanol, 344.45 K | 0.0838
in ethanol, 347.55 K | 0.0905
in methanol, 294.25 K | 0.0142
in methanol, 298.65 K | 0.0163
in methanol, 303.16 K | 0.0189
in methanol, 308.45 K | 0.0221
in methanol, 312.35 K | 0.0249
in methanol, 318.15 K | 0.0298
in methanol, 321.05 K | 0.0325
in methanol, 324.65 K | 0.036
in methanol, 327.45 K | 0.0391
in methanol, 328.95 K | 0.041
in pyridine, 288.95 K | 0.139
in pyridine, 292.45 K | 0.145
in pyridine, 298.95 K | 0.157
in pyridine, 303.85 K | 0.166
in pyridine, 310.25 K | 0.178
in pyridine, 317.05 K | 0.193
in pyridine, 322.55 K | 0.205
in pyridine, 328.45 K | 0.219
in pyridine, 333.15 K | 0.23
in pyridine, 338.25 K | 0.243
in pyridine, 344.95 K | 0.262
in pyridine, 348.85 K | 0.273
in toluene, 286.65 K | 0.0006
in toluene, 291.95 K | 0.0008
in toluene, 292.05 K | 0.0008
in toluene, 295.95 K | 0.0009
in toluene, 301.75 K | 0.0011
in toluene, 301.85 K | 0.0012
in toluene, 307.95 K | 0.0015
in toluene, 312.05 K | 0.0019
in toluene, 316.05 K | 0.0022
in toluene, 319.25 K | 0.0026
in toluene, 323.75 K | 0.003
in toluene, 327.95 K | 0.0035
in toluene, 331.15 K | 0.0043
in toluene, 334.65 K | 0.0051
in toluene, 337.65 K | 0.0059
in toluene, 342.35 K | 0.0069
